Data: PMC13052863 (PLOS One, 2026)
pIC50: −log10 of the molar value. Where two headings read alike, the source gives them in different places.

What was measured:
D. melanogaster eIF4A wt = target: T1, D. melanogaster eIF4A wt (Drosophila melanogaster, UniProt Q02748); type: binding; conditions: S3 Table
T1 construct: made in house; host or cells: E. coli BL21 (DE3)

[1] = target: T2, D. melanogaster eIF4A mutant Y160L (Drosophila melanogaster, UniProt Q02748, Y160L); type: binding; conditions: S3 Table, D. melanogaster mut.
T2 construct: made in house; host or cells: E. coli BL21 (DE3)
T2 sequence (Q02748 whole entry Y160L): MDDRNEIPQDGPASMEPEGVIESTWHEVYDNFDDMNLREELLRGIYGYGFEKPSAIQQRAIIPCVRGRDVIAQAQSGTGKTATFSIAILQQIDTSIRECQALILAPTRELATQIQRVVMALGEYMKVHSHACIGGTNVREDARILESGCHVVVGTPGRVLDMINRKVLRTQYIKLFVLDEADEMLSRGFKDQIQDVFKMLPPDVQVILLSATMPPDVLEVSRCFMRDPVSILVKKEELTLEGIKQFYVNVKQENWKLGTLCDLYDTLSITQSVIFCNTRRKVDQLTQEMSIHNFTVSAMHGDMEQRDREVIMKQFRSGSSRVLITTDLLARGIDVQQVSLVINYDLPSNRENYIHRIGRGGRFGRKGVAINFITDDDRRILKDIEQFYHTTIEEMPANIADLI

[2] = test system: Ae. aegypti eIF4A mutant H161L; conditions: for reduction in thermal shift with the mutant compared to the wt protein: Ae. aegypti eIF4A, (GA)5 10mer; for ∆Tm: S3 Table, Ae. aegypti mut.
[3] = test system: A. suspensa eIF4A mutant Y160L; conditions: S3 Table, A. suspensa mut.
RVFV MP-12 = type: cell-based, Rift Valley fever virus; conditions: A549 cells pretreated with 50 nM silvestrol, MOI 0.1, 18 h post-infection, relative to DMSO controls
RVFV Clone 13 = type: cell-based, Rift Valley fever virus; conditions: A549 cells pretreated with 50 nM silvestrol, MOI 0.1, 18 h post-infection, relative to DMSO controls
[4] = test system: eIF4A-dependent firefly luciferase translation in S2 cells; type: cell-based, D. melanogaster; conditions: t = 24 h
[5] = test system: eIF4A-dependent firefly luciferase translation in Aag2 cells; type: cell-based, Ae. aegypti; conditions: t = 48 h
A549 cells = conditions: 50–100 nM, WST-1
Aag2 cells = assay: cells; conditions: Aedes aegypti, read-out: IC50 (best-fit value, 4PL dose-viability curve)
S2 cells = assay: cells; conditions: Drosophila melanogaster, read-out: IC50 (best-fit value, 4PL dose-viability curve)
in vitro [6] = conditions: Aedes aegypti, CC50, Aag2 cells, WST-1
in vitro [7] = conditions: Drosophila melanogaster, CC50, S2 cells, WST-1
[8] = silvestrol in the sub-CC50 range, vs DMSO and (AC)15 control

T1 sequence (Q02748 whole entry): as the sequence (Q02748 whole entry Y160L) above, with L160Y counted along it

| Structure (SMILES) | ∆Tm (D. melanogaster eIF4A wt; RNA oligo (AC)5) [°C] | ∆Tm (D. melanogaster eIF4A wt; RNA oligo (AG)5) [°C] | ∆Tm (D. melanogaster eIF4A wt; RNA oligo (GA)5) [°C] | ∆Tm (D. melanogaster eIF4A wt; RNA oligo (UA)5) [°C] | ∆Tm (D. melanogaster eIF4A wt; RNA oligo (UC)5) [°C] | ∆Tm (D. melanogaster eIF4A wt; RNA oligo (UG)5) [°C] | ∆Tm ([1]; RNA oligo (AC)5) [°C] | ∆Tm ([1]; RNA oligo (AG)5) [°C] | ∆Tm ([1]; RNA oligo (GA)5) [°C] | ∆Tm ([1]; RNA oligo (UC)5) [°C] | ∆Tm ([1]; RNA oligo (UG)5) [°C] | reduction in thermal shift with the mutant compared to the wt protein [2] | ∆Tm ([2]; RNA oligo (AC)5) [°C] | ∆Tm ([2]; RNA oligo (AG)5) [°C] | ∆Tm ([2]; RNA oligo (GA)5) [°C] | ∆Tm ([2]; RNA oligo (UA)5) [°C] | ∆Tm ([2]; RNA oligo (UC)5) [°C] | ∆Tm ([2]; RNA oligo (UG)5) [°C] | ∆Tm ([3]; RNA oligo (AC)5) [°C] | ∆Tm ([3]; RNA oligo (GA)5) [°C] | further results |
| --- | --- | --- | --- | --- | --- | --- | --- | --- | --- | --- | --- | --- | --- | --- | --- | --- | --- | --- | --- | --- | --- |
| CONC(=O)C1C(O)C2(O)c3c(OC)cc(OC)cc3OC2(c2ccc(OC)cc2)C1c1ccccc1 (stereo not drawn) [CR-31-B (-)] | -0.43 | 6.55 | 5.81 | -0.71 | -1.11 | 5.59 | -4.66 | 0.74 | 1.88 | -4.09 | -2.27 | ~3 °C | -4.82 | 7.50 | 3.74 | -4.65 | -5.44 | -0.09 | -4.03 | 2.81 | ∆Tm ([1]; RNA oligo (UA)5): -4.43 °C; ∆Tm ([3]; RNA oligo (UA)5): -4.53 °C; ∆Tm ([3]; RNA oligo (UC)5): -4.59 °C; ∆Tm ([3]; RNA oligo (UG)5): -2.82 °C |
| COC(=O)[C@H]1[C@@H](O)[C@@]2(O)c3c(OC)cc(O[C@@H]4O[C@@H]([C@H](O)CO)CO[C@H]4OC)cc3O[C@@]2(c2ccc(OC)cc2)[C@@H]1c1ccccc1 [silvestrol] | 1.02 | 9.55 | 9.16 | -0.09 | -0.09 | 7.31 | -1.65 | 1.76 | 2.90 | -3.87 | -2.05 | about 5 °C | -5.7 | 7.84 | 3.91 | -5.16 | -5.73 | -0.68 | -4.10 | 3.53 | RVFV L-segment RNA levels (RVFV MP-12): strong reduction; RVFV L-segment RNA levels (RVFV Clone 13): strong reduction; translation efficiency with the (AC)15 control ([4]; silvestrol concentrations in the CC50 range): reduction of translation efficiency; firefly luciferase activity / translation efficiency with the (AG)15 plasmid [4, 8]: strong reduction; translation efficiency with the (AC)15 control [5]: already visible at the half CC50 concentration; firefly luciferase activity / translation efficiency with the (AG)15 plasmid [5, 8]: strong reduction; cytotoxicity (A549 cells): No cytotoxicity; pIC50 (Aag2 cells; 24 h): 7.44; pIC50 (Aag2 cells; 48 h): 7.34; pIC50 (S2 cells; 24 h): 8.20; pIC50 (S2 cells; 48 h): 8.21; CC50 (in vitro [6]; 24 h incubation): 55.6 nM; CC50 (in vitro [6]; 48 h incubation): 49 nM; CC50 (in vitro [7]; 24 h incubation): 11.5 nM; CC50 (in vitro [7]; 48 h incubation): 7.3 nM; ∆Tm ([3]; RNA oligo (UA)5): -4.50 °C; ∆Tm ([3]; RNA oligo (UC)5): -4.15 °C; ∆Tm ([3]; RNA oligo (UG)5): -3.02 °C |
